Target: human ORL-1 receptor (Homo sapiens, UniProt P41146)
Assay: Agonist activity: stimulation of [35S]-GTPγS binding
Format: biochemical
Conditions: compound at 100 nM

Chain of human ORL-1 receptor (P41146 whole entry): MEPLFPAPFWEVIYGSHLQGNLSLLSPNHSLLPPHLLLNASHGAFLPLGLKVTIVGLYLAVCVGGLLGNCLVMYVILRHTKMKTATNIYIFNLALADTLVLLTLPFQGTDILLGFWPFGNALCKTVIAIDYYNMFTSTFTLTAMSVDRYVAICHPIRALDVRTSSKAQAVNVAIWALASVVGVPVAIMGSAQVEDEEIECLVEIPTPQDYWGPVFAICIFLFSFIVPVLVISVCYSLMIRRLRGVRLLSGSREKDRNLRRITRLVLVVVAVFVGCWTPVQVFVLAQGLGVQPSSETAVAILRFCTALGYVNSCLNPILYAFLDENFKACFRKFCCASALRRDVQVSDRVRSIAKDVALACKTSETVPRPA

activation at 0.1 µM: 102%
SMILES: CNC(=O)NC1(c2ccccc2)CCN(C(c2ccccc2Cl)c2ccccc2Cl)CC1
